BindingDB's records for patent US10053471 (Boehringer Ingelheim International, 2018)

Target: 5'-AMP-activated protein kinase catalytic subunit alpha-1/subunit beta-1/subunit gamma-1 (Homo sapiens, UniProt P54619+Q13131+Q9Y478)
Assay: in vitro AMPK activation assays
Conditions: pH 7; 25 °C
Description: The test compounds were dissolved in 100% DMSO at a concentration of 10 mM and in a first step diluted in DMSO to a concentration of 5 mM, followed by serial dilution steps in 100% DMSO. Dilution factor and number of dilution steps may vary. Typically 8 different concentrations by 1:5 dilutions were prepared, further dilutions of the substances were carried out with test buffer (20 mM Hepes (pH 7.0), 15 mM MgCl2, 0.025% BSA, 0.01% Brij 35) until a concentration was reached which was 5 times above the final test concentration. 2 μl aliquots of these dilutions were transferred into a 384-well Optiplate (Perkin Elmer, #6007290). Typically the start concentration for serial dilutions in the assay is 10 μM. Typically AMPK was diluted to 25 μg/ml in the test buffer and 4 μl of this dilution were used in the kinase test (final concentration of AMPK is 10 μg/ml in a total volume of 10 μl for the kinase reaction). Kinase concentrations may vary depending on activity of the preparation batches. […] The plates were read with an Envision Luminescence Reader (Perkin-Elmer).

5'-AMP-activated protein kinase catalytic subunit alpha-1/subunit beta-1/subunit gamma-1, sequence (Q9Y478 whole entry): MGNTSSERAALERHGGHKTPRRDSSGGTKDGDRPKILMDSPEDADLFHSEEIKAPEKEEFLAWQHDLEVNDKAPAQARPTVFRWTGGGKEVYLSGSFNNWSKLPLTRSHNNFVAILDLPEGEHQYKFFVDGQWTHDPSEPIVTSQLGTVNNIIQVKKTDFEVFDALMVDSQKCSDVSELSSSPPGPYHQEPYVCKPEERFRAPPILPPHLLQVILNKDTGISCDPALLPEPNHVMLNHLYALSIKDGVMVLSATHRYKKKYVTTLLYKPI
5'-AMP-activated protein kinase catalytic subunit alpha-1/subunit beta-1/subunit gamma-1, sequence (P54619 whole entry): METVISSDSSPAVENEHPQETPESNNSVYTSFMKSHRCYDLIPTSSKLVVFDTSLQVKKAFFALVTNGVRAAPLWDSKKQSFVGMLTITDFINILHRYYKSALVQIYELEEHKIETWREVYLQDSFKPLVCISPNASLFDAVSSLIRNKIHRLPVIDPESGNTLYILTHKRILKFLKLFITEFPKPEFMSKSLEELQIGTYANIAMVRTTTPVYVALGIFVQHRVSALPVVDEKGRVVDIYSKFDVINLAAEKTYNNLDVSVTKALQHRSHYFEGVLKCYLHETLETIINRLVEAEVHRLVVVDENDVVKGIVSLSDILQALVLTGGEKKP
5'-AMP-activated protein kinase catalytic subunit alpha-1/subunit beta-1/subunit gamma-1, sequence (Q13131 whole entry): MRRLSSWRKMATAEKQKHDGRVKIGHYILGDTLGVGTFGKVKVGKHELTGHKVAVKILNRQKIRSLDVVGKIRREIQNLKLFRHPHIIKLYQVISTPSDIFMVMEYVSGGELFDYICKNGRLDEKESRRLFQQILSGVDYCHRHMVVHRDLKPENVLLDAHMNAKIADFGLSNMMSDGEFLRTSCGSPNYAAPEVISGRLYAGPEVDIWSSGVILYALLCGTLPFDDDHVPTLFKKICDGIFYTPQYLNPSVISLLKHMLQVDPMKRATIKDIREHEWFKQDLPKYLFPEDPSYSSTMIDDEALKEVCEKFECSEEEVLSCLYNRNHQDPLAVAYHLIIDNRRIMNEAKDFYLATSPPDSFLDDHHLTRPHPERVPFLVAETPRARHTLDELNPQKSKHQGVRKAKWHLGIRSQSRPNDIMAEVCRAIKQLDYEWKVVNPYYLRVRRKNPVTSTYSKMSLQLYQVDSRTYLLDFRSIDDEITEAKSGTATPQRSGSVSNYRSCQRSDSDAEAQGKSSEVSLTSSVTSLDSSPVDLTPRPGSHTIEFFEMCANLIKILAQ

EC50: 71 nM
Compound: CS(=N)(=O)c1ccc(-c2ccc(-c3nc4[nH]c(O[C@@H]5CO[C@H]6[C@@H]5OC[C@H]6O)nc4cc3Cl)cc2)c(F)c1 (stereo partly specified) [US10053471, 13]
